Three compounds from paper PMC13422867, “An orally available PfPKG inhibitor blocks Plasmodium’s infection of the liver” (PLOS Pathogens, 2026) can be followed below.

The subject of data set [1] is P. cynomolgi hypnozoite. The experiment in a line: Hypnozoite formation in primary simian hepatocytes, high-content imaging. The data set is classed as cell-based, Plasmodium cynomolgi. How it is done:
(§1) Liver stage antimalarial activity was evaluated using sporozoites from P. falciparum (NF54 strain) and P. cynomolgi bastianellii (B strain). P. falciparum-infected Anopheles stephensi mosquitoes were reared at WRAIR, while P. cynomolgi-infected Anopheles dirus mosquitoes were obtained from the Armed Forces Research Institute of Medical Sciences (AFRIMS), Thailand. Sporozoites were isolated by dissecting salivary glands under sterile conditions, followed by gentle mechanical disruption. Freshly isolated sporozoites were immediately used for hepatocyte infection.
(§2) Primary cryopreserved hepatocytes were selected based on host-parasite compatibility: primary simian hepatocytes (lot OQB) for P. cynomolgi and human hepatocytes (lot BGW) for P. falciparum (BioIVT Inc., Baltimore, MD, USA). Cells were thawed according to the manufacturer’s protocol and seeded into 384-well collagen-coated assay plates (Greiner Bio-One, Monroe, NC, USA) using InVitroGro CP plating medium (BioIVT). Seeding densities were optimized for uniform monolayer formation, and hepatocytes were allowed to adhere for 24–48 hours before infection. Sporozoites were added at a 1:1.1 hepatocyte-to-sporozoite ratio within 48 hours post-seeding. Automated robotic systems were used for media changes and compound additions to ensure assay consistency and minimize variability associated with manual pipetting.
(§3) Test compounds (PfPKG inhibitors) and assay drug controls (KDU-691 and tafenoquine) were solubilized in DMSO or PBS and serially diluted into 8- or 12-point, 2- or 3-fold series, achieving final assay concentrations ranging from 20 µM to 0.019 µM. Compounds were introduced using a calibrated pin tool controlled by robotic arms (V&P Scientific), ensuring a 1:1000 dilution into assay wells. Media were replenished daily with fresh drug-containing HCM. […]
(§4) Cells were fixed using 4% paraformaldehyde for 20 minutes at room temperature, followed by three PBS washes, and stored at 4°C until further processing. Parasite detection was performed using species-specific primary antibodies, with P. cynomolgi parasites labeled using a mouse monoclonal anti-Plasmodium GAPDH antibody (1.6 μg/mL, European Malaria Reagent Repository) and P. falciparum parasites detected using a rabbit polyclonal anti-PfHSP70 antibody (1:70 dilution, LS Bio, USA). […]
(§5) High-content imaging was performed using the Operetta CLS system (Revvity) and image analysis was performed with Harmony software version 4.9 (Revvity, Waltham, MA, USA). Images were acquired at 10x or 20x magnification using DAPI and TRITC fluorescence channels. Following the established protocol, parasites were classified as hypnozoites or schizonts based on fluorescence intensity (mean and maximum), morphological features (cell roundness and size), and segmentation criteria. […]

Data set [2] deals with P. cynomolgi schizont. Briefly: Schizont formation in primary simian hepatocytes, high-content imaging. It is filed as cell-based, Plasmodium cynomolgi. How it is done:
as §1, §2, §3, §4, §5

A short description of data set [3]: Cellular cytotoxicity, hepatocyte nuclear counts. It is filed as cell-based, simian. As to conditions: simian, primary cryopreserved simian hepatocytes (lot OQB); cellular cytotoxicity.
Text: as §2
(§6) Test compounds (PfPKG inhibitors) and assay drug controls (KDU-691 and tafenoquine) were solubilized in DMSO or PBS and serially diluted into 8- or 12-point, 2- or 3-fold series, achieving final assay concentrations ranging from 20 µM to 0.019 µM. Compounds were introduced using a calibrated pin tool controlled by robotic arms (V&P Scientific), ensuring a 1:1000 dilution into assay wells. Media were replenished daily with fresh drug-containing HCM. Compounds were added 1-hour post-infection (p.i.) (day 0) and administered daily for 3 days. Cells were fixed on day 6 p.i. of P. falciparum culture and day 8 for P. cynomolgi infected culture, coinciding with liver stage schizont maturation.
(§7) High-content imaging was performed using the Operetta CLS system (Revvity) and image analysis was performed with Harmony software version 4.9 (Revvity, Waltham, MA, USA). Images were acquired at 10x or 20x magnification using DAPI and TRITC fluorescence channels. Following the established protocol, parasites were classified as hypnozoites or schizonts based on fluorescence intensity (mean and maximum), morphological features (cell roundness and size), and segmentation criteria. Hepatocyte nuclei were identified using Hoechst 33342 staining. Background signal was captured in uninfected, stained wells and subjected to the same parasite detection algorithm. Estimate erroneous parasite counts were then subtracted from infected well counts. Hepatocyte viability was determined by quantifying nuclear counts per well using Hoechst stain intensity thresholds. […] An in-house built Python-based image analysis script identified parasite objects using predefined fluorescence intensity thresholds. […] Parasite size was quantified by calculating the average object area (µm²) of validated parasite structures per well. […] Dose-response inhibition and IC50 were calculated relative to in-plate negative controls (DMSO-treated wells). […]

Data set [4] has as its system P. falciparum sporozoites. Briefly: Sporozoite infection of primary human hepatocytes, high-content imaging. It is filed as cell-based, Plasmodium falciparum. How it is done:
Liver stage antimalarial activity was evaluated using sporozoites from P. falciparum (NF54 strain) and P. cynomolgi bastianellii (B strain). P. falciparum-infected Anopheles stephensi mosquitoes were reared at WRAIR, while P. cynomolgi-infected Anopheles dirus mosquitoes were obtained from the Armed Forces Research Institute of Medical Sciences (AFRIMS), Thailand. Sporozoites were isolated by dissecting salivary glands under sterile conditions, followed by gentle mechanical disruption. Freshly isolated sporozoites were immediately used for hepatocyte infection. […]
as §4
High-content imaging was performed using the Operetta CLS system (Revvity) and image analysis was performed with Harmony software version 4.9 (Revvity, Waltham, MA, USA). Images were acquired at 10x or 20x magnification using DAPI and TRITC fluorescence channels. […]

The test system of data set [5] is primary human hepatocytes. Briefly: Cellular cytotoxicity, hepatocyte nuclear counts. It is filed as cell-based. The note with it: cellular cytotoxicity.
Text: as §2
Test compounds (PfPKG inhibitors) and assay drug controls (KDU-691 and tafenoquine) were solubilized in DMSO or PBS and serially diluted into 8- or 12-point, 2- or 3-fold series, achieving final assay concentrations ranging from 20 µM to 0.019 µM. […]
as §7, with “Hepatocyte nuclei were identified using Hoechst 33342 staining. Background signal was captured in uninfected, stained wells and subjected to the same parasite detection algorithm. Estimate erroneous parasite counts were then subtracted from infected well counts.” left out

For data set [6], the system named is primary simian hepatocytes. Briefly: Cellular cytotoxicity, hepatocyte nuclear counts. It is filed as cell-based.
Text: as §2, §6, §7

Data set [7] concerns P. berghei sporozoites (PbLuc-GFP). The experiment in a line: In vivo chemoprotective efficacy against sporozoite liver infection. More on the design: species or system Plasmodium berghei in mice. As to the method:
In the first experiment, mice were administered three doses, intravenously (IV) or orally (PO), of compound (10 mg/kg) - two prior to sporozoite inoculation to block sporozoite invasion of hepatocytes and the third at 36 hpi to prevent egress of liver stages (Fig 3A). In vivo bioluminescent imaging (IVIS) of mice was utilized to detect and quantify relative parasitemia in the liver and flow cytometry was used to detect the appearance of blood stage parasites. Vehicle-treated mice were used as a negative control.
In vivo chemoprotective efficacy was evaluated using luciferase-expressing P. berghei ANKA sporozoites. […] Liver stage parasite burden was measured 42–48 h p.i. by bioluminescence imaging (IVIS Spectrum). Photon flux from the liver region was quantified using Living Image software. All animal procedures were approved by the Rutgers Institutional Animal Care and Use Committee (IACUC).

The test system is the same in data set [8]. The description is as above. Also on record: species or system Plasmodium berghei in mice. As to conditions: Intravenous, 10 mg/kg x 3.
Setting [9] is: Plasmodium cynomolgi, Hepatocyte.

Molecules are shown by their SMILES. “And” between values parts separate entries of the source, which are not always exact repeats. Equal values may be shown once. Read-outs that look alike come from different tables or passages of the source.

In general, IC50 refers to the concentration needed to halve the response being measured. Low readings indicate higher potency, high ones lower potency. As usually defined, the CC50 is the concentration giving 50% cytotoxicity. Higher therefore signals lower toxicity to the cells. For `COc1cc(C)c2c(Oc3cccc(C(F)(F)F)c3)c(OC)cc(NC(C)CCCN)c2n1` (stereo not drawn) [Tafenoquine, tafenoquine], the IC50 turned out to be 0.085 µM in data set [1] (setting [9]) and 0.041 µM in data set [2] (setting [9]). The CC50 at 3 days in data set [3] came out at 3.6 µM.
As to `CNC(=O)c1ccc(-c2cnc3cnc(C(=O)N(C)c4ccc(Cl)cc4)cn23)cc1` [KDU-691], the IC50 is 0.051 µM in data set [4], 0.11 µM in data set [1] and 0.042 µM in data set [2]. The CC50 in data set [5] and in data set [6] was above 10 µM throughout.
Consider `CN1CCC(c2cc(-c3ccncc3)c(-c3ccc(F)cc3)[nH]2)CC1` [TSP, reference compound], for which the IC50 in data set [1] was 0.4 µM; in data set [2], 0.32 µM. In addition, it took 8.5 µM to reach half-maximal cytotoxicity in data set [6] (CC50). Further, the “mice that did not show blood stage parasites for 3 weeks pi” value in data set [7] (3 intravenous doses, 10 mg/kg) was 2/5. Further, the “mice displaying liver infection at 44 hpi” value in data set [7] (IV, 10 mg/kg x 3, bioluminescent imaging) is 3/5. Besides, the “Prepatent period mean ± sd” value in data set [7] (Intravenous, 10 mg/kg x 3, blood stages by flow cytometry, 10 mg/kg) was 4.3 days and 4.3 ± 1.1 days. For the same compound, the “No. of mice patent by D21/ No. of mice inoculated” value in data set [8] was 3/5.
